{
  "source": "paper PMC7198382",
  "about": "(Journal of nuclear medicine : official publication, Society …, 2019)",
  "key": {"[1]": {"tested_on": "CA20948 tumor xenograft-bearing mice", "assay": "SPECT/CT tumor uptake of 177Lu-DOTATATE", "format": "in vivo", "conditions": "dynamic SPECT imaging after intravenous administration, one mouse"}, "[2]": {"tested_on": "CA20948 tumor xenografts", "assay": "In vivo 177Lu tumor dosimetry from SPECT VOI analysis", "parameters": "species or system mice", "conditions": "single exponential fit of tumour time-activity data; mean ± SD"}},
  "data": [
    {"smiles": "C[C@@H](O)[C@H](NC(=O)[C@@H]1CSSC[C@H](NC(=O)[C@@H](Cc2ccccc2)NC(=O)CN2CCN(CC(=O)O)CCN(CC(=O)O)CCN(CC(=O)O)CC2)C(=O)N[C@@H](Cc2ccc(O)cc2)C(=O)N[C@H](Cc2c[nH]c3ccccc23)C(=O)N[C@@H](CCCCN)C(=O)N[C@@H]([C@@H](C)O)C(=O)N1)C(=O)O", "note": "[^177Lu-DOTATATE, (DOTA^0-Tyr^3)-octreotate, metal not drawn]", "values": [
      {"measurement": "time at which maximum tumor uptake was reached", "setting": "[1]", "result": 60, "unit": "min"},
      {"measurement": "mean effective half-life of clearance from the tumor xenografts", "setting": "[2]", "result": "46.3 ± 8.6", "unit": "h"}
    ]}
  ]
}
